Measurements reported in paper PMC6177136, “Hybrid topoisomerase I and HDAC inhibitors as dual action anticancer agents” (PLoS ONE, 2018).

Assays:
A431 = test: Cytotoxicity assay (SRB, 72 h) A431; type: cell-based, Human; conditions: Homo sapiens, A-431, read-out: IC50 ± SD A431
HT29 = test: Cytotoxicity assay (SRB, 72 h) HT29; type: cell-based, Human; conditions: Homo sapiens, HT-29, read-out: IC50 ± SD HT29
HepG2 = test: Cytotoxicity assay (SRB, 72 h) HepG2; type: cell-based, Human; conditions: Homo sapiens, HepG2, read-out: IC50 ± SD HepG2
A2780 = test: Cytotoxicity assay (SRB, 72 h) A2780; type: cell-based, Human; conditions: Homo sapiens, A2780, read-out: IC50 ± SD A2780
[1] = test system: series of human tumor cell lines; test: Antiproliferative activity, series of human tumor cell lines (summary); type: cell-based; conditions: span over the cell line panel, 72 h, SRB assay, read-out: IC50 across the human tumor cell lines of Table 3
HDAC2 = HDAC2 (Homo sapiens, UniProt Q92769); test: HDAC profiling HDAC2; type: biochemical; conditions: purified isoform, 10 concentrations from 10 μM, triplicate
Chain of HDAC2 (Q92769 whole entry, canonical isoform): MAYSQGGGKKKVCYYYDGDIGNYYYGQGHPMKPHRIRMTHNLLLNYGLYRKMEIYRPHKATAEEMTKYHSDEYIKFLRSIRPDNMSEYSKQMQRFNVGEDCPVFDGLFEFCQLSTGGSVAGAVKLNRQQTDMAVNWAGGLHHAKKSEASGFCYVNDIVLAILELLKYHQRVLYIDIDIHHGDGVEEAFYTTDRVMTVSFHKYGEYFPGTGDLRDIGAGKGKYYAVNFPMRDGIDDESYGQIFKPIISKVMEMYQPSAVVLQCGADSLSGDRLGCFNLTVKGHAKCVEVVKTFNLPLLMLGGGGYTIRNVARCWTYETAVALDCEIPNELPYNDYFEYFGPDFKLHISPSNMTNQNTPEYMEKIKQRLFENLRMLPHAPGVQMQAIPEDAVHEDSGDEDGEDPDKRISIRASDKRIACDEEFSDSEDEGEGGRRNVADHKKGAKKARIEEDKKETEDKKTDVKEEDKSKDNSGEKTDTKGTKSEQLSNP

HDAC6 = HDAC6 (Homo sapiens, UniProt Q9UBN7); test: HDAC profiling HDAC6; type: biochemical; conditions: purified isoform, 10 concentrations from 10 μM, triplicate
Chain of HDAC6 (Q9UBN7 whole entry, canonical isoform): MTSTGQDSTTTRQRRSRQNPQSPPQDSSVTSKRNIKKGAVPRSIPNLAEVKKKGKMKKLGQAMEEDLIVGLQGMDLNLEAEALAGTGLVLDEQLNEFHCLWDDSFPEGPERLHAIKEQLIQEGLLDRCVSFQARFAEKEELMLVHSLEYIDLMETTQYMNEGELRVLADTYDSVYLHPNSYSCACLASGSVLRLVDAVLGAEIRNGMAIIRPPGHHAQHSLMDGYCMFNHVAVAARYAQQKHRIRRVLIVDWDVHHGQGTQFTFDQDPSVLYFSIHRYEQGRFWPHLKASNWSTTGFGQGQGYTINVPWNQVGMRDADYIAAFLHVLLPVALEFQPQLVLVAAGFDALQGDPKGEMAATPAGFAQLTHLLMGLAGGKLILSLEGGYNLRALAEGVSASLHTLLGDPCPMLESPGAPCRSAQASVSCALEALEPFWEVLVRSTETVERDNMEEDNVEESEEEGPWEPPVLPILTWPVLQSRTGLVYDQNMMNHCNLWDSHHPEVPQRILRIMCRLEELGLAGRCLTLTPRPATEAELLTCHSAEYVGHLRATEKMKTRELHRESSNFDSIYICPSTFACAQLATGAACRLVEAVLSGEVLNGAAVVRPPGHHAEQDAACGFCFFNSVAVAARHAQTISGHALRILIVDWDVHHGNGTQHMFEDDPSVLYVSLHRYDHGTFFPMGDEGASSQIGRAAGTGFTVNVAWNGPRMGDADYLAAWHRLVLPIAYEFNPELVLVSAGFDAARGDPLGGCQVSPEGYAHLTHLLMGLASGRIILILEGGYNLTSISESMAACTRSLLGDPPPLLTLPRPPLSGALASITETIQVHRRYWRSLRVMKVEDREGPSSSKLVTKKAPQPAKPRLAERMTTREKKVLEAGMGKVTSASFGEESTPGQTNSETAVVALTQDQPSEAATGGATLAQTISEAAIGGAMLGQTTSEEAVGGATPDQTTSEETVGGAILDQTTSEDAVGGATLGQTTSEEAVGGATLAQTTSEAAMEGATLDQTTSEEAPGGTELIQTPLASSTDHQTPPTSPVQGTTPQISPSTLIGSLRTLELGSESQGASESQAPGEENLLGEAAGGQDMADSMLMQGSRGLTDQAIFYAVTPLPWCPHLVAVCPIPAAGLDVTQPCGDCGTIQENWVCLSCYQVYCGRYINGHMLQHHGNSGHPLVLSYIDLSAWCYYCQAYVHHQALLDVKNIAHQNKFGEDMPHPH

HDAC10 = HDAC10 (Homo sapiens, UniProt Q969S8); test: HDAC profiling HDAC10; type: biochemical; conditions: purified isoform, 10 concentrations from 10 μM, triplicate
Chain of HDAC10 (Q969S8 whole entry, canonical isoform): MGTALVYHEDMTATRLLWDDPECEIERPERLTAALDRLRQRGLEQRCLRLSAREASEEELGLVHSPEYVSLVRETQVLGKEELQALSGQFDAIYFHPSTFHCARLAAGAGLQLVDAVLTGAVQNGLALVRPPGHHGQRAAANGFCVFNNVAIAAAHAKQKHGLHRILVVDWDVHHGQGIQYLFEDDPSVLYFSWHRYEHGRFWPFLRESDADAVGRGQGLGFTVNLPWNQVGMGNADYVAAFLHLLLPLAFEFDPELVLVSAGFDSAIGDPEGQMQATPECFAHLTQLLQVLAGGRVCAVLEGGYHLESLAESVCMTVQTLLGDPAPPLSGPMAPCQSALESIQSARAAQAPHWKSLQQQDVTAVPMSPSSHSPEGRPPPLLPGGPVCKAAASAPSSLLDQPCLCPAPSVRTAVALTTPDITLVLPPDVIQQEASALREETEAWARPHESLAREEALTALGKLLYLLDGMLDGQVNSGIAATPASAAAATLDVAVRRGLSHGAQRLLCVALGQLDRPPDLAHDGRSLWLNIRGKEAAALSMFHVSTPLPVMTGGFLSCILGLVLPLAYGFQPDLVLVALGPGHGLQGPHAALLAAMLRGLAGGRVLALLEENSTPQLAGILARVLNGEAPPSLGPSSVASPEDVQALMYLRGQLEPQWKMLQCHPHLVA

MINO = test: Cytotoxicity assay (MTT, 72 h) MINO; type: cell-based, Human; conditions: Homo sapiens, MINO; 72 h, MTT assay; read-out: IC50 ± SD MINO
MAVER-2 = test: Cytotoxicity assay (MTT, 72 h) MAVER-2; type: cell-based, Human; conditions: Homo sapiens, read-out: IC50 ± SD MAVER-2
JECO-1 = test: Cytotoxicity assay (MTT, 72 h) JECO-1; type: cell-based, Human; conditions: Homo sapiens; 72 h, MTT assay; read-out: IC50 ± SD JECO-1
OCI-LY3 = test: Cytotoxicity assay (MTT, 72 h) OCI-LY3; type: cell-based, Human; conditions: Homo sapiens, OCI-Ly3; 72 h, MTT assay; read-out: IC50 ± SD OCI-LY3
Protocol: Human tumor cells were seeded in 96-well cell culture plastic plates, allowed to attach, and exposed to scalar concentrations of the test compounds.

KM-H2 = test: Cytotoxicity assay (MTT, 72 h) KM-H2; type: cell-based, Human; conditions: Homo sapiens, KM-H2; 72 h, MTT assay; read-out: IC50 ± SD KM-H2
K 562 = test: Cytotoxicity assay (MTT, 72 h) K 562; type: cell-based; conditions: Homo sapiens, K562, read-out: IC50 ± SD K 562
ARH-77 = test: Cytotoxicity assay (MTT, 72 h) ARH-77; type: cell-based; conditions: Homo sapiens, read-out: IC50 ± SD ARH-77
THP1 = test: Cytotoxicity assay (MTT, 72 h) THP1; type: cell-based; conditions: Homo sapiens, THP-1, read-out: IC50 ± SD THP1
RAJI = test: Cytotoxicity assay (MTT, 72 h) RAJI; type: cell-based; conditions: Homo sapiens, read-out: IC50 ± SD RAJI
[2] = test system: hematologic cancer cell lines; test: Screening on hematologic cancer cell lines (summary); type: cell-based; conditions: Homo sapiens, read-out: IC50 across hematologic cancer cell lines (Tables 5 and 6); span over the cell line panel, 72 h, MTT assay
MM288 = test: Cytotoxicity assay, primary mesothelioma MM288; type: cell-based, Human; conditions: Homo sapiens; epithelioid, 72 h, SBR assay; read-out: IC50 ± SD MM288
MM317 = test: Cytotoxicity assay, primary mesothelioma MM317; type: cell-based, Human; conditions: Homo sapiens; epithelioid, 72 h, SBR assay; read-out: IC50 ± SD MM317
MM487 = test: Cytotoxicity assay, primary mesothelioma MM487; type: cell-based, Human; conditions: Homo sapiens, MM487; biphasic, 72 h, SBR assay; read-out: IC50 ± SD MM487
MM472 = test: Cytotoxicity assay, primary mesothelioma MM472; type: cell-based, Human; conditions: Homo sapiens; sarcomatoid, 72 h, SBR assay; read-out: IC50 ± SD MM472
NCI-H460 NSCLC cells = test: FACS analysis of cell cycle and apoptosis; type: cell-based, Human; conditions: 72 h at own IC80 dose, PI staining
p53 = test: Western blot, p53 in NCI-H460 cells; type: cell-based, Human; conditions: 24 h; SAHA 5 μM, SN38 0.05 μM, 3d 0.125–0.2–0.5 μM
Protocol: (§1) The supernatant, containing the total proteins extracts, were transferred in new vials. The protein concentration was measured by Bradford Protein Assay. Equal amounts of proteins for each sample were then resolved by SDS-PAGE and loaded on 10–12% polyacrilamide gels. The proteins were then transferred on nitrocellulose membranes. Molecular weights were estimated based upon the relative migration with molecular weight protein markers.
(§2) The non-specific binding was blocked by incubation of membranes in TBS-tween (25 mM Tris, 150 mM NaCl, 0.1% Tween 20) with 5% nonfat dry milk (BIORAD, Milan) for 60 minutes. Subsequently, the membrane was incubated overnight with primary antibodies: anti-Histone H4 (Millipore, 1:500), anti-acetyl-H4 (Santa Cruz, 1:1000) anti-p21 (Santa Cruz, 1:1000), anti-acetyl-tubulin (abcam, 1:1000), anti-α-tubulin (Sigma, 1:5000), anti β-actin (Sigma, 1:5000) and anti-Topoisomerase 1 (Santa Cruz, 1:500). After three washes with TBST blots were incubated with HRP-coniugated secondary anti-mouse and anti-rabbit (Santa Cruz, 1:5000) 1 hour at room temperature. After three washes with TBST the blots were developed with ECL substrate (GE Healthcare) and chemiluminescence detected by ChemiDoc Imaging System (Biorad). The optical density of the protein bands detected by western blotting was normalized on α -tubulin levels and analyzed by ChemiDoc software (Biorad).
(§3) Cells were lysed in 0.5% NP-40 and 40 μg of total proteins were loaded on NuPAGE 4–12% (Invitrogen), transferred to a nitrocellulose paper and probed with specific antibodies.

p21 = test: Western blot, p21 in NCI-H460 cells; type: cell-based, Human; conditions: 24 h; SAHA 5 μM, SN38 0.05 μM, 3d 0.125–0.2–0.5 μM
Protocol: as §1
as §2, with “software (Biorad). […]” for “software (Biorad).”

p16 = test: Western blot, p16 in NCI-H460 cells; type: cell-based, Human; conditions: 24 h; SAHA 5 μM, SN38 0.05 μM, 3d 0.125–0.2–0.5 μM
Protocol: as §1, §2, §3

[3] = mouse, in vivo, iv, 45 mg/kg
[4] = test system: human epithelioid mesothelioma MM473-Luc; test: In vivo antitumor activity, orthotopic MM473-Luc xenograft; conditions: i.v. 45 mg/kg, q4dx3w, treatment from day 15

CC[C@@]1(O)C(=O)OCc2c1cc1n(c2=O)Cc2c-1nc1ccc(O)cc1c2C=NOCCCCCC(=O)NO [Compound 3d, 6-(10-hydroxycamptothecin-7-ylmethyleneaminooxy)-hexanoic acid hydroxyamide]
IC50 (A431): 140 ± 20 nM | IC50 (HT29): 390 ± 100 nM | IC50 (HepG2): 110 ± 30 nM | IC50 (A2780): 270 ± 80 nM | IC50 [1]: 30 to 400 nM | IC50 (HDAC2): 93.3 nM | IC50 (HDAC6): 1.56 nM | IC50 (HDAC10): 224 nM | IC50 (MINO): 31 ± 10 nM | IC50 (MAVER-2): 12 ± 1 nM | IC50 (JECO-1): 23 ± 6 nM | IC50 (OCI-LY3): 18 ± 5 nM | IC50 (KM-H2): 390 ± 100 nM | IC50 (K 562): 940 ± 200 nM | IC50 (ARH-77): 210 ± 60 nM | IC50 (THP1): 220 ± 90 nM | IC50 (RAJI): 77 ± 20 nM | IC50 [2]: 6 to 4000 nM | IC50 (MM288): 480 ± 100 nM | IC50 (MM317): 850 ± 200 nM | IC50 (MM487): 200 ± 50 nM | IC50 (MM472): 48 ± 10 nM | G0/1 (%) (NCI-H460 NSCLC cells): 12.1% | G2/M (%) (NCI-H460 NSCLC cells): 11.9% | S (%) (NCI-H460 NSCLC cells): 76.0% | Sub-G0/1 (%) (NCI-H460 NSCLC cells; apoptosis): 15.2% | p53 activation (p53): induced p53 activation | expression of p21 (p21): activated the expression of p21 | P16 regulation (p16): didn’t show any effect | body weight [3]: no reduction in body weight was observed | antitumor activity (BLI signal, average radiance) [4]: strong antitumor activity
